Drawing on patent US6326369A, “Bicyclic quinone compounds, their production and use” (Takeda Chemicals Industries, Ltd., priority 1997, dated 2001), this text covers IC50 for two molecules.

Like-named read-outs stand apart in the source and are kept apart here.

In the assay the test system is Brain Homogenate. Kind of assay: Peroxylipid formation inhibiting effect in brain homogenate (thiobarbituric acid (TBA) method). The format is biochemical, Wistar rats (male, 12-week old). The settings on record: 37° C., 30 minutes, pH 7.4. How it is done:
JC1:Wistar rats (male, 12-week old) were used as test animals. The rats were sacrificed by decapitation, and the brain was quickly removed and homogenized with 10 ml of 10 mM Tris-HCl buffer (pH 7.4) containing 150 mM KCl. The resulting homogenate was centrifuged at 2,200 rpm, at 4° C., for 10 minutes, and the supernatant was used in the test. 250 μl of the supernatant was put into a 96-well plate, to which was added a test compound and incubated at 37° C. for 30 minutes.
The concentration of glutamic acid and succinic acid, if added prior to the incubation, was 5.0 mM and 2.5 mM, respectively.
To determine the amount of the peroxylipid formed, used was a thiobarblturic acid (TBA) method. Briefly, 50 μl of 35% perchloric acid was added to the incubated mixture, which was then centrifuged at 2,000 rpm, at 4° C., for 10 minutes. The resulting supernatant was transferred into a different 96-well plate in an amount of 200 μl/well. 100 μl/well of TBA (5 mg/ml TBA in 50% acetic acid) was added thereto, and reacted at 80° C. for 1 hour. Then, the reaction mixture was cooled to room temperature, and its absorbance at 532 nm was measured.
On the other hand, a calibration curve was prepared using tetraethoxypropane which is a […] for TBA. In the same manner, the peroxylipid concentration in a sample that had been incubated for 30 minutes in the absence of the test compound, and also the peroxylipid concentration in a sample to which had been added 35% perchloric acid prior to the incubation (in the absence of the test compound) were also obtained. The inhibition percentage was calculating according to the following equation. The 50% inhibitory concentration (IC50) was obtained, using a log-probit method.
Inhibition Percentage (%)=[(C-A)/(C-B)]×100
A: Peroxylipid concentration in the sample to which was added the test compound;
B: Peroxylipid concentration in the sample to which was added 35% perchloric acid prior to the incubation;
C: Peroxylipid concentration in the sample to which was not added the test compound.

[1] abbreviates: brain homogenate only, read-out: Peroxylipid Formation Inhibiting Effect (IC50) Brain Homogenate Only.
[2] abbreviates: glutamic acid 5.0 mM and succinic acid 2.5 mM added prior to incubation, read-out: Peroxylipid Formation Inhibiting Effect (IC50) Glutamic Acid and Succinic Acid Added.

As to `CCOC(=O)CCCCCCCC1CC2=C(C1)C(=O)C(OC)=C(OC)C2=O` [Ex. 9, Ethyl 8-(5,6-dimethoxy-4,7-dioxoindan-2-yl)octanoate], the half-maximal inhibitory concentration (IC50) is, setting by setting: under setting [1], 2300 nM; under setting [2], 940 nM.
As to `COC1=C(OC)C(=O)C2=C(CC(CCCCCCCCO)C2)C1=O` [Ex. 10, 2-(8-Hydroxyoctyl)-5,6-dimethoxyindan-4,7-dione], the IC50 runs as follows: under setting [1], 1100 nM; under setting [2], 170 nM.

As a reminder, the IC50 is the point on the concentration scale where inhibition reaches its midpoint.
